Assay results taken from PubChem BioAssay (NCI).
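96-well plates; 48 h exposure; 5 concentrations. Endpoints by linear interpolation between flanking doses. Not reached: highest tested concentration assigned. TGI: total growth inhibition.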

Legend:
Experiment in all cases: NCI tumour cell line growth inhibition, 48 h
TK-10 renal = test system: TK-10 renal
SF-295 CNS = test system: SF-295 CNS
HOP-18 NSCLC = test system: HOP-18 NSCLC
SF-268 CNS = test system: SF-268 CNS
DMS 273 small cell lung = test system: DMS 273 small cell lung
SK-OV-3 ovarian = test system: SK-OV-3 ovarian
A498 renal = test system: A498 renal
CAKI-1 renal = test system: CAKI-1 renal
SN12C renal = test system: SN12C renal
OVCAR-8 ovarian = test system: OVCAR-8 ovarian
UO-31 renal = test system: UO-31 renal
OVCAR-3 ovarian = test system: OVCAR-3 ovarian
KM20L2 colon = test system: KM20L2 colon
HL-60(TB) leukemia = test system: HL-60(TB) leukemia
786-0 renal = test system: 786-0 renal
OVCAR-4 ovarian = test system: OVCAR-4 ovarian
SW-620 colon = test system: SW-620 colon
MALME-3M melanoma = test system: MALME-3M melanoma
SNB-75 CNS = test system: SNB-75 CNS
NCI-H522 lung = test system: NCI-H522 lung
HCT-116 colon = test system: HCT-116 colon
UACC-257 melanoma = test system: UACC-257 melanoma
HT29 colon = test system: HT29 colon
OVCAR-5 ovarian = test system: OVCAR-5 ovarian
K-562 leukemia = test system: K-562 leukemia
SK-MEL-2 melanoma = test system: SK-MEL-2 melanoma
RPMI-8226 leukemia = test system: RPMI-8226 leukemia
HOP-92 NSCLC = test system: HOP-92 NSCLC
EKVX NSCLC = test system: EKVX NSCLC
LOX IMVI melanoma = test system: LOX IMVI melanoma
HOP-62 NSCLC = test system: HOP-62 NSCLC
LXFL 529 NSCLC = test system: LXFL 529 NSCLC
SR leukemia = test system: SR leukemia
CCRF-CEM leukemia = test system: CCRF-CEM leukemia
SNB-19 CNS = test system: SNB-19 CNS
U251 CNS = test system: U251 CNS
SK-MEL-28 melanoma = test system: SK-MEL-28 melanoma
NCI-H23 lung = test system: NCI-H23 lung
DLD-1 colon = test system: DLD-1 colon
IGROV1 ovarian = test system: IGROV1 ovarian
M19-MEL melanoma = test system: M19-MEL melanoma
RXF-631 renal = test system: RXF-631 renal
NCI-H226 lung = test system: NCI-H226 lung
UACC-62 melanoma = test system: UACC-62 melanoma
NCI-H460 lung = test system: NCI-H460 lung
A549 NSCLC = test system: A549 NSCLC
ACHN renal = test system: ACHN renal
M14 melanoma = test system: M14 melanoma
RXF 393 renal = test system: RXF 393 renal
SK-MEL-5 melanoma = test system: SK-MEL-5 melanoma
KM12 colon = test system: KM12 colon
COLO 205 colon = test system: COLO 205 colon
SF-539 CNS = test system: SF-539 CNS
HCC-2998 colon = test system: HCC-2998 colon
MOLT-4 leukemia = test system: MOLT-4 leukemia
DMS 114 small cell lung = test system: DMS 114 small cell lung
MCF7 breast = test system: MCF7 breast
BT-549 breast = test system: BT-549 breast
XF 498 CNS = test system: XF 498 CNS
MDA-MB-435 = test system: MDA-MB-435
HCT-15 colon = test system: HCT-15 colon
SNB-78 CNS = test system: SNB-78 CNS

With O=S(=O)(c1ccc(O)c(C=Nc2ccc(Cl)cc2)c1)c1ccc(O)c(C=Nc2ccc(Cl)cc2)c1 the TGI (TK-10 renal) was over 100 µM, the TGI (SF-295 CNS) was over 100 µM and the TGI (HOP-18 NSCLC) was over 100 µM. It also gave a TGI (SF-268 CNS) of over 100 µM, a TGI (DMS 273 small cell lung) of over 100 µM and a TGI (SK-OV-3 ovarian) of over 100 µM. It also gave a TGI (A498 renal) of over 100 µM, a TGI (CAKI-1 renal) of over 100 µM and a TGI (SN12C renal) of over 100 µM. For the same compound, the TGI (OVCAR-8 ovarian) was over 100 µM, the TGI (UO-31 renal) was over 100 µM and the TGI (OVCAR-3 ovarian) was over 100 µM. It also gave a TGI (KM20L2 colon) of over 100 µM, a TGI (HL-60(TB) leukemia) of over 100 µM and a TGI (786-0 renal) of over 100 µM. The TGI (OVCAR-4 ovarian) was over 100 µM, the TGI (SW-620 colon) was over 100 µM and the TGI (MALME-3M melanoma) was over 100 µM. It also gave a TGI (SNB-75 CNS) of over 100 µM, a TGI (NCI-H522 lung) of over 100 µM and a TGI (HCT-116 colon) of over 100 µM. For the same compound, the TGI (UACC-257 melanoma) was over 100 µM, the TGI (HT29 colon) was over 100 µM and the TGI (OVCAR-5 ovarian) was over 100 µM. It also gave a TGI (K-562 leukemia) of over 100 µM, a TGI (SK-MEL-2 melanoma) of over 100 µM and a TGI (RPMI-8226 leukemia) of over 100 µM. For the same compound, the TGI (HOP-92 NSCLC) was over 100 µM, the TGI (EKVX NSCLC) was over 100 µM and the TGI (LOX IMVI melanoma) was over 100 µM. It also gave a TGI (HOP-62 NSCLC) of over 100 µM, a TGI (LXFL 529 NSCLC) of over 100 µM and a TGI (SR leukemia) of over 100 µM. The TGI (CCRF-CEM leukemia) was over 100 µM, the TGI (SNB-19 CNS) was over 100 µM and the TGI (U251 CNS) was over 100 µM. The TGI (SK-MEL-28 melanoma) was over 100 µM, the TGI (NCI-H23 lung) was over 100 µM and the TGI (DLD-1 colon) was over 100 µM. It also gave a TGI (IGROV1 ovarian) of over 100 µM, a TGI (M19-MEL melanoma) of over 100 µM and a TGI (RXF-631 renal) of over 100 µM. For the same compound, the TGI (NCI-H226 lung) was over 100 µM, the TGI (UACC-62 melanoma) was over 100 µM and the TGI (NCI-H460 lung) was over 100 µM. For the same compound, the TGI (A549 NSCLC) was over 100 µM, the TGI (ACHN renal) was over 100 µM and the TGI (M14 melanoma) was over 100 µM. It also gave a TGI (RXF 393 renal) of over 100 µM, a TGI (SK-MEL-5 melanoma) of over 100 µM and a TGI (KM12 colon) of over 100 µM. It also gave a TGI (COLO 205 colon) of over 100 µM, a TGI (SF-539 CNS) of over 100 µM and a TGI (HCC-2998 colon) of over 100 µM. It also gave a TGI (MOLT-4 leukemia) of over 100 µM and a TGI (DMS 114 small cell lung) of over 100 µM.
With COc1ccc2nc3ccccc3c(NCCCCN(C)CCCl)c2c1 the TGI (TK-10 renal) was over 31.9 µM, the TGI (SF-295 CNS) was 1.17 µM and the TGI (SF-268 CNS) was 0.756 µM. The TGI (DMS 273 small cell lung) was 0.283 µM, the TGI (SK-OV-3 ovarian) was 0.469 µM and the TGI (CAKI-1 renal) was 0.381 µM. For the same compound, the TGI (SN12C renal) was 0.128 µM, the TGI (UO-31 renal) was 1.22 µM and the TGI (OVCAR-3 ovarian) was 0.712 µM. It also gave a TGI (KM20L2 colon) of 0.478 µM, a TGI (HL-60(TB) leukemia) of 0.0435 µM and a TGI (786-0 renal) of 0.185 µM. The TGI (OVCAR-4 ovarian) was 0.843 µM, the TGI (SW-620 colon) was 0.2 µM and the TGI (MALME-3M melanoma) was 1.06 µM. For the same compound, the TGI (MCF7 breast) was 0.172 µM, the TGI (SNB-75 CNS) was 0.504 µM and the TGI (NCI-H522 lung) was 0.0763 µM. For the same compound, the TGI (HCT-116 colon) was 0.303 µM, the TGI (UACC-257 melanoma) was 4.93 µM and the TGI (HT29 colon) was 1.46 µM. It also gave a TGI (OVCAR-5 ovarian) of 1.08 µM, a TGI (K-562 leukemia) of 0.93 µM and a TGI (SK-MEL-2 melanoma) of 0.666 µM. It also gave a TGI (RPMI-8226 leukemia) of 0.544 µM, a TGI (EKVX NSCLC) of 3.05 µM and a TGI (LOX IMVI melanoma) of 0.539 µM. For the same compound, the TGI (BT-549 breast) was 1.98 µM, the TGI (HOP-62 NSCLC) was 0.546 µM and the TGI (LXFL 529 NSCLC) was 0.189 µM. The TGI (SR leukemia) was 0.0355 µM, the TGI (CCRF-CEM leukemia) was 0.229 µM and the TGI (SNB-19 CNS) was 0.707 µM. The TGI (U251 CNS) was 0.251 µM, the TGI (XF 498 CNS) was 0.293 µM and the TGI (MDA-MB-435) was 0.325 µM. For the same compound, the TGI (SK-MEL-28 melanoma) was 2.39 µM, the TGI (NCI-H23 lung) was over 100 µM and the TGI (DLD-1 colon) was 0.964 µM. For the same compound, the TGI (IGROV1 ovarian) was 0.877 µM, the TGI (M19-MEL melanoma) was 0.602 µM and the TGI (RXF-631 renal) was 0.367 µM. The TGI (NCI-H226 lung) was 0.575 µM, the TGI (UACC-62 melanoma) was 0.305 µM and the TGI (NCI-H460 lung) was 0.234 µM. For the same compound, the TGI (HCT-15 colon) was 0.494 µM, the TGI (A549 NSCLC) was 1.87 µM and the TGI (ACHN renal) was 0.132 µM. For the same compound, the TGI (SNB-78 CNS) was 0.674 µM, the TGI (M14 melanoma) was 0.314 µM and the TGI (RXF 393 renal) was 0.362 µM. The TGI (SK-MEL-5 melanoma) was 0.442 µM, the TGI (KM12 colon) was 0.4 µM and the TGI (COLO 205 colon) was 0.0789 µM. The TGI (SF-539 CNS) was 0.284 µM and the TGI (HCC-2998 colon) was 0.467 µM.
CC(=O)C1C(=O)N(C(C)C)C[C@@H]2CCC(=O)C[C@H]12 (stereo not given in full) gave a TGI (TK-10 renal) of over 100 µM, a TGI (SF-295 CNS) of over 100 µM and a TGI (SF-268 CNS) of over 100 µM. For the same compound, the TGI (DMS 273 small cell lung) was over 100 µM, the TGI (SK-OV-3 ovarian) was over 100 µM and the TGI (A498 renal) was over 100 µM. It also gave a TGI (CAKI-1 renal) of over 100 µM, a TGI (SN12C renal) of over 100 µM and a TGI (OVCAR-8 ovarian) of over 100 µM. For the same compound, the TGI (UO-31 renal) was over 100 µM, the TGI (OVCAR-3 ovarian) was over 100 µM and the TGI (HL-60(TB) leukemia) was over 100 µM. For the same compound, the TGI (786-0 renal) was over 100 µM, the TGI (OVCAR-4 ovarian) was over 100 µM and the TGI (SW-620 colon) was over 100 µM. For the same compound, the TGI (MALME-3M melanoma) was over 100 µM, the TGI (SNB-75 CNS) was over 100 µM and the TGI (NCI-H522 lung) was over 100 µM. It also gave a TGI (HCT-116 colon) of over 100 µM, a TGI (UACC-257 melanoma) of over 100 µM and a TGI (HT29 colon) of over 100 µM. The TGI (K-562 leukemia) was over 100 µM, the TGI (SK-MEL-2 melanoma) was over 100 µM and the TGI (RPMI-8226 leukemia) was over 100 µM. The TGI (HOP-92 NSCLC) was over 100 µM, the TGI (EKVX NSCLC) was over 100 µM and the TGI (LOX IMVI melanoma) was over 100 µM. For the same compound, the TGI (HOP-62 NSCLC) was over 100 µM, the TGI (LXFL 529 NSCLC) was over 100 µM and the TGI (CCRF-CEM leukemia) was over 100 µM. It also gave a TGI (SNB-19 CNS) of over 100 µM, a TGI (U251 CNS) of over 100 µM and a TGI (XF 498 CNS) of over 100 µM. For the same compound, the TGI (SK-MEL-28 melanoma) was over 100 µM, the TGI (NCI-H23 lung) was over 100 µM and the TGI (DLD-1 colon) was over 100 µM. It also gave a TGI (IGROV1 ovarian) of over 100 µM, a TGI (M19-MEL melanoma) of over 100 µM and a TGI (RXF-631 renal) of over 100 µM. It also gave a TGI (UACC-62 melanoma) of over 100 µM, a TGI (NCI-H460 lung) of over 100 µM and a TGI (HCT-15 colon) of over 100 µM. For the same compound, the TGI (A549 NSCLC) was over 100 µM, the TGI (SNB-78 CNS) was over 100 µM and the TGI (M14 melanoma) was over 100 µM. The TGI (RXF 393 renal) was over 100 µM, the TGI (SK-MEL-5 melanoma) was over 100 µM and the TGI (KM12 colon) was over 100 µM. For the same compound, the TGI (COLO 205 colon) was over 100 µM, the TGI (SF-539 CNS) was over 100 µM and the TGI (HCC-2998 colon) was over 100 µM. For the same compound, the TGI (MOLT-4 leukemia) was over 100 µM and the TGI (DMS 114 small cell lung) was over 100 µM.
